We go through 17 molecules from ChEMBL document CHEMBL6182884, “Synthesis and structure-activity evaluation of a series of novel tricyclic STING activators” (Eur J Med Chem, 2025).

The test addresses Stimulator of interferon genes protein (Homo sapiens, UniProt Q86WV6). Nature of the test: Activation of human STING R232 variant transfected in HEK293T cells expressing ISRE.ISG54 luciferase reporter assessed as secretory reporter gene activity by measuring luciferase level incubated for 20 hrs by luminometer. Type of test: cell-based.

Stimulator of interferon genes protein, sequence (Q86WV6 whole entry, looked up): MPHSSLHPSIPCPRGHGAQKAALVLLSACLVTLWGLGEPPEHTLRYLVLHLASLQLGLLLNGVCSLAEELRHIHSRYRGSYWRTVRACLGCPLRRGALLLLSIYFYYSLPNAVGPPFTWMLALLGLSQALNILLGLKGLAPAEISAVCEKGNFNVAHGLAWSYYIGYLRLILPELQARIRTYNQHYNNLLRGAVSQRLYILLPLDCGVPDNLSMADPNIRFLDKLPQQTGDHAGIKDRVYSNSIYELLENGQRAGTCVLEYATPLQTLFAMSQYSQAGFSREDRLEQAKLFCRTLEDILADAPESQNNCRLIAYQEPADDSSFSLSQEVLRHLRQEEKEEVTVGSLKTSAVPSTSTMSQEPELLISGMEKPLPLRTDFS

`C[C@@H]1Sc2ccc(C(=O)NCc3cc4cc(F)ccc4o3)cc2-n2c(-c3ccc(F)cc3)nnc21`: the EC50 was determined as 40 nM. With `C[C@H]1Sc2ccc(C(=O)NCc3cc4cc(F)ccc4o3)cc2-n2c(-c3ccc(F)cc3)nnc21`, the EC50 worked out at 1090 nM. For `O=C(NCc1c(F)cc(F)cc1F)c1ccc2c(c1)-n1c(nnc1-c1ccccc1)CS2`, the EC50 came out at 2080 nM.

On to `CC1Sc2ncc(C(=O)NCc3cc4ccccc4o3)cc2-n2c(-c3ccccc3)nnc21` (racemic), for which the EC50 is 414 nM. For `CC1Sc2ccc(C(=O)NCc3c(F)cc(F)cc3F)cc2-n2c(Cc3ccccc3)nnc21` (racemic) the value was 1540 nM.

In the case of `CC1Sc2ccc(C(=O)NCc3cc4cc(F)ccc4o3)cc2-n2c(-c3ccc(F)cc3)nnc21` (racemic), the EC50 was determined as 48 nM.

Take `CC1Sc2ccc(C(=O)NCc3c(F)cc(F)cc3F)cc2-n2c(-c3ccc(F)cc3)nnc21` (racemic): the EC50 was 373 nM.

For the molecule `CC1Sc2ccc(C(=O)NCc3cc4cc(F)ccc4o3)cc2-n2c(-c3ccc(F)cc3F)nnc21` (racemic), the EC50 was 53 nM. For `Cc1cccc(-c2nnc3n2-c2cc(C(=O)NCc4c(F)cc(F)cc4F)ccc2SC3C)c1` (racemic) the value was 1560 nM; for `CC1Sc2ccc(C(=O)NCc3cc4ccc(F)cc4o3)cc2-n2c(-c3ccc(F)cc3)nnc21` (racemic), 65 nM; for `CC1Sc2ccc(C(=O)NCc3cc4cc(F)c(F)cc4o3)cc2-n2c(-c3ccc(F)cc3)nnc21` (racemic), 45 nM. Next, `CC1Sc2ccc(C(=O)NCc3c(F)cc(F)cc3F)cc2-n2c(-c3cccc(F)c3)nnc21` (racemic): 2880 nM; `CC1Sc2ccc(C(=O)NCc3c(F)cc(F)cc3F)cc2-n2c(-c3ccncc3)nnc21` (racemic): 1630 nM. For `CC1Sc2ccc(C(=O)NCc3c(F)cc(F)cc3F)cc2-n2c(-c3ccccc3F)nnc21` (racemic) the value was 804 nM; for `CC1Sc2ccc(C(=O)NCc3c(F)cc(F)cc3F)cc2-n2c(-c3ccc(Cl)cc3F)nnc21` (racemic), 1970 nM; for `Cc1ccc(-c2nnc3n2-c2cc(C(=O)NCc4c(F)cc(F)cc4F)ccc2SC3C)cc1` (racemic), 3810 nM.

As to `CC1Sc2ncc(C(=O)NCc3cc4cc(F)ccc4o3)cc2-n2c(-c3ccc(F)cc3)nnc21` (racemic), the EC50 was found to be 111 nM.
